The results in this text go back to patent EP3454861B1, “BENZOXAZINE OR QUINAZOLINE DERIVATIVES FOR USE IN THE TREATMENT OF ALZHEIMER'S DISEASE” (Biocodex, priority 2016, dated 2017).

For the assay, the system named is neurones corticaux. Description: Oxidative stress (MetO-positive neurons) in cortical neurons after Aβ1-42. The format is cell-based, rats. The conditions noted are these: Rattus norvegicus, Cortical neurone, Aβ1-42 1,25 µM, 4 h (Aβ1-42 alone 136.98%), read-out: nombre de neurones positifs à MetO. Here is the method:
Des neurones corticaux de rats sont mis en culture comme dans la méthode décrite par Singer (1999) J. Neurosci. 19:2455-2463. Des rats femelles enceintes de 15 jours sont tuées par dislocation des cervicales (Rats Wistar, Janvier) et le fœtus est retiré de l'utérus. Les cortex sont prélevés et placés dans un milieu glacé de Leibovitz (L15, Panbiotech, Réf : P04-27055, lot : 9310614) contenant 2% de pénicilline (10 000 U/ml) et de streptomycine (10 mg/ml) (PS, Panbiotec, Réf : P06-07100, lot : 48101114) et 1% de sérum-albumine bovine (BSA, Panbiotech, Réf : P06-1391100, lot : H140603). Les cortex sont dissociés par trypsination (0,05% Panbiotech, Réf : P10-023100, lot : 5890314) pendant 20 minutes à 37°C. La réaction est stoppée par addition d'un milieu Eagle modifié de Dulbecco (DMEM, Panbiotech, réf P04-03600, lot : 9670913) contenant de la DNase I grade Il (0,1 mg/ml Panbiotech, Réf : P60-37780100, lot : H140508) et 10 % de sérum de veau fœtal (FCS, Invitrogen, Réf : 10270 à 098, lot : 41Q4120K). Les cellules sont dissociées mécaniquement par 3 passages à travers une pipette de 10 ml. Les cellules sont ensuite centrifugées à 515 g pendant 10 minutes à 4°C. […]

With `CCNC1=Nc2ccc(Cl)cc2C(C)(c2ccccc2)O1` (centres unmarked) [Etifoxine, chlorhydratede 6-chloro-2-éthylamino-4-méthyl-4-phényl-4H-[3,1]benzoxazine], for the setting “étifoxine 3 µM”, the activity at 3 µM is 108%. Also, the activity at 10 µM (étifoxine 10 µM) worked out at 103%.
